Some results are limits rather than exact numbers.

The test relates to BeWo (choriocarcinoma) cells. The test can be described thus: MTT cancer cell viability assay, BeWo. The class given is cell-based. As to conditions: Homo sapiens, 48 h. On the procedure:
A possible therapeutic application of GLUT3 inhibitors is in oncology, especially for cancers in which GLUT3 is a poor prognosis marker. We tested the effect of GLUT3 inhibitors on the cell viability of several different cancer lines: myeloid leukemia (HL60 and U937), lung cancer (A549), colorectal adenocarcinoma (Caco-2), breast cancer (MCF7), hepatocellular carcinoma (HepG2), and choriocarcinoma (BeWo) cells. GLUT3 inhibitors, at five different concentrations, ranging from 2 to 100 µM, were incubated with cancer cells for 48 h. Then, cell viability was assessed with the MTT assay. […] G3iC and G3iD also affected the leukemia cell lines but at double the concentrations of G3iB and G3iE. […] G3iB had some cytotoxic activity (CC50 < 50 µM) against the highest number of cancer cell lines (HL60, U937, A549, HepG2, and MCF7).
Cancer cell viability in the presence of GLUT3 inhibitors was assayed using the MTT Cell Viability Kit (Biotium Inc, Freemont, CA) according to manufacturer’s instructions. Cancer cells were grown in the corresponding medium, at 37 °C and 5% CO2 in a humidified incubator. The media (Gibco) for leukemia cells (HL60 and U937), A549, MCF7, BeWo, and HepG2 cells were RPMI 1640, Ham’s F-12K, DMEM:F-12, Ham’s F-12K, and EMEM, respectively, all supplemented with 10% (v/v) fetal bovine serum (HyClone). Caco-2 cells were grown in EMEM supplemented with 20% (v/v) fetal bovine serum. Cells were detached from the culture flasks with Accutase (Innovative Cell Technologies, Inc., San Diego, CA) according to manufacturer’s instructions. Cells were seeded in 96-well plates, at a density of ~ 30,000 cells/well (in 100 µl fresh media) and incubated with varying concentrations of GLUT3 inhibitors for 48 h, at 37 °C and 5% CO2 in a humidified incubator. The inhibitors were dissolved in DMSO, at 100× the final concentration, so that 1 µl of the stock inhibitor concentration was added per well, making the final DMSO concentration 1% (v/v). Therefore, controls for 100% cell viability were cells with 1% (v/v) DMSO without the inhibitors. Controls for 0% cell viability were cells treated with 0.3% (v/v) Tween 20. For MTT assay, 10 µl of MTT reagent was added in each well followed by 3–4 h incubation at 37 °C and 5% CO2 in a humidified incubator. After thoroughly mixing in 200 µl DMSO in each well, the plates were put into a plate reader (BioTek Synergy H1), and the absorbances at 570 nm and 630 nm were measured with Gen5 program (BioTek Inc.). The experimental values represent Abs570 nm-Abs630 nm with each inhibitor condition and control being the average of three wells.
Supplementary Figure S8. Effect of GLUT3 inhibitors on the viability of various cancer cell lines. Cell viability was determined by MTT assay in A549 (lung cancer), BeWo (choriocarcinoma), Caco-2 (colon cancer), HepG2 (liver cancer), HL-60 (leukemia), MCF7 (breast cancer), and U937 (histiocytic lymphoma) cell lines. GLUT3 inhibitors at concentrations of 2, 5, 10, 20, 50, and 100 µM were incubated with cells in 96-well plates for 48 hours before the addition of the MTT reagent.

As to `COc1ccccc1-n1c(/C=C/c2ccc(O)cc2)nc2ccc(Br)cc2c1=O` [G3iB, 6-bromo-2-[(E)-2-(4-hydroxyphenyl)ethenyl]-3-(2-methoxyphenyl)quinazolin-4(3H)-one], the CC50 was > 50 µM.
In the case of `Cc1cccnc1OC1CCN(c2cc(N3CCCC3CO)ncn2)CC1` (stereo not drawn) [G3iC], the CC50 is > 100 µM.
With `Cc1ccccc1CN(Cc1nnc(C(C)(C)C)o1)c1ccc2nc(O)[nH]c2c1` [G3iF], the CC50 was ~100 µM.
Consider `CC(=O)Nc1ccc(S(=O)(=O)Nc2ccc(Nc3cc(N(C)C)nc(C)n3)cc2)cc1` [G3iA, N-(4-{[(4-{[6-(dimethylamino)-2-methylpyrimidin-4-yl]amino}phenyl)amino]sulfonyl}phenyl)acetamide], for which the 50% cytotoxic concentration (CC50) is > 100 µM.
For `O=C(Nc1cccc(Cl)c1)c1cccc(NC(=O)c2cccc([N+](=O)[O-])c2)c1` [G3iE, N-{3-[(3-chloroanilino)carbonyl]phenyl}-3-nitrobenzamide], the CC50 is > 50 µM.
The figure for `Cc1cc(NC(=O)CCC2Cc3ccccc3NC2=O)nc(-c2ccccc2)n1` (stereo not drawn) [G3iD] is > 100 µM.

As a reminder, the CC50 is the concentration that lowers cell viability or growth by half.

The values are drawn from publication PMC8791944, “GLUT3 inhibitor discovery through in silico ligand screening and in vivo validation in eukaryotic expression systems” (Scientific Reports, 2022).
